# Assays:
# [1] = system: Mycosphaerella praminicola (Seotoria tritici); assay: Example B-16: Mycosphaerella graminicola (Septoria tritici) / liquid culture (comparative); assay type: cell-based; conditions: 96 h, 24° C., photometric after 4 days, read-out: inhibition of growth
# Experimental: (§1) Mycosphaerella praminicola (Seotoria tritici)/Liquid Culture (Septoria Blotch) Conidia of the fungus from cryogenic storage were directly mixed into nutrient broth (PDB potato dextrose broth). After placing a (DMSO) solution of the test compounds into a microtiter plate (96-well format) the nutrient broth containing the fungal spores was added. The test plates were incubated at 24° C. and the inhibition of growth is measured photometrically after 4 days.
# [2] = system: Monographella nivalis (anamorph: Fusarium nivale, Microdochium nivale); assay: Example B-4: Action against Monographella nivalis, fungal growth assay; assay type: cell-based; conditions: 0.002% active ingredient, PDB broth, 24° C., photometric after 72 hrs
# Experimental: (§2) Action Against Monographella nivalis (anamorph: Fusarium nivale, Microdochium nivale; Snow Mould)—Fungal Growth Assay Conidia of the fungus from cryogenic storage were directly mixed into nutrient broth (PDB potato dextrose broth). After placing a DMSO-solution of the test compounds (0.002% active ingredient) into a microtiter plate (96-well format) the nutrient broth containing the fungal spores was added. The test plates were incubated at 24° C. and the inhibition of growth was measured photometrically after 72 hrs (0=no growth inhibition, ratings of 80% to 99% mean good to very good inhibition, 100%=complete inhibition).
# Pyrenophora teres [3] = assay: Example B-12: Pyrenophora teres / barley / leaf disc preventive (comparative); assay type: in vivo; conditions: 4 dpi
# Experimental: Pyrenophora teres/Barley/Leaf Disc Preventive (Net Blotch) Barley leaf segments were placed on agar in a multiwell plate (24-well format) and sprayed with test solutions. After drying, the leaf disks were inoculated with a spore suspension of the fungus. After appropriate incubation the activity of a compound was assessed 4 dpi (days after inoculation) as preventive fungicidal activity.
# Botrvtis cinerea = assay: Example B-1: Action against Botrytis cinerea, fungal growth assay; assay type: cell-based; conditions: 0.002% active ingredient, PDB broth, 24° C., photometric after 3-4 days
# Experimental: as §2, with “Action against Botrvtis cinerea—fungal growth assay” for “Action Against Monographella nivalis (anamorph: Fusarium nivale, Microdochium nivale; Snow Mould)—Fungal Growth Assay”, “storage was” for “storage were”, “a (DMSO) solution” for “a DMSO-solution”, “after 3-4 days. The activity of a compound was expressed as fungal growth inhibition” for “after 72 hrs”
# [4] = system: Mycosphaerella arachidis (Cercospora arachidicola); assay: Example B-15: Mycosphaerella arachidis / liquid culture (comparative); assay type: cell-based; conditions: 24° C., photometric after 6-7 days, read-out: inhibition of growth
# Experimental: as §1, with “Mycosphaerella arachidis (Cercospora arachidicola)/Liquid” for “Mycosphaerella praminicola (Seotoria tritici)/Liquid”, “Culture (Early Leaf Spot)” for “Culture (Septoria Blotch)”, “after 6-7” for “after 4”
# Pyrenophora teres [5] = assay: Example B-8: Action against Pyrenophora teres (net blotch) on barley leaf segments; assay type: in vivo; conditions: foliar, 96 h, 0.02% active ingredient, 4 days after inoculation, read-out: preventive fungicidal activity (inhibition)
# Experimental: Action Against Pyrenophora teres (Net Blotch) on Barley Barley leaf segments were placed on agar in multiwell plates (24-well format) and sprayed with test solutions (0.02% active ingredient). After drying, the leaf disks were inoculated with a spore suspension of the fungus. After appropriate incubation the activity of a compound was assessed 4 days after inoculation as preventive fungicidal activity.
# Gaeumannomyces graminis = assay: Example B-17: Gaeumannomyces graminis / liquid culture (comparative); assay type: cell-based; conditions: 24 C, photometric after 2-3 days, read-out: inhibition of growth
# Experimental: as §1, with “Gaeumannomyces graminis/Liquid” for “Mycosphaerella praminicola (Seotoria tritici)/Liquid”, “(Take-All of Cereals) Mycelial fragments” for “(Septoria Blotch) Conidia”, “24 C” for “24° C.”, “was determined” for “is measured”, “2-3” for “4”
# [6] = system: Mycosphaerella arachidis (Cercospora arachidicola); assay: Example B-2: Action against Mycosphaerella arachidis, fungal growth assay; assay type: cell-based; conditions: 0.002% active ingredient, PDB broth, 24° C., photometric after 6-7 days
# Experimental: as §2, with “Mycosphaerella arachidis (Early Leaf Spot of Groundnut; Cercospora arachidicola [fanamorph])—Fungal” for “Monographella nivalis (anamorph: Fusarium nivale, Microdochium nivale; Snow Mould)—Fungal”, “(DMSO) solution” for “DMSO-solution”, “6-7 days. The activity of a compound was expressed as fungal growth inhibition” for “72 hrs”
# [7] = system: Monopraphella nivalis (Microdochium nivale); assay: Example B-18: Monographella nivalis (Microdochium nivale) / liquid culture (comparative); assay type: cell-based; conditions: 24° C., photometric after 4-6 days, read-out: inhibition of growth
# Experimental: Monopraphella nivalis (Microdochium nivale)/Liquid Culture (Foot Rot Cereals Conidia of the fungus from cryogenic storage were directly mixed into nutrient broth (PDB potato dextrose broth). After placing a (DMSO) solution of the test compounds into a microtiter plate (96-well format) the nutrient broth containing the fungal spores was added. The test plates were incubated at 24° C. and the inhibition of growth is measured photometrically after 4-6 days.
# Alternaria solani = assay: Example B-13: Alternaria solani / tomato / leaf disc (comparative); assay type: in vivo; conditions: 4 dpi
# Experimental: Alternaria solani/Tomato/Leaf Disc (Early Blight) Tomato leaf disks were placed on water agar in multiwell plates (24-well format) and sprayed with test solutions. After drying, the leaf disks were inoculated with a spore suspension of the fungus. After appropriate incubation the activity of a compound was assessed 4 dpi (days after inoculation) as preventive fungicidal activity.
# Septoria tritici = assay: Example B-3: Action against Septoria tritici, fungal growth assay; assay type: cell-based; conditions: Zymoseptoria tritici; 0.002% active ingredient; PDB broth, 24° C., photometric after 72 hrs
# Experimental: as §2, with “Septoria tritici—Fungal” for “Monographella nivalis (anamorph: Fusarium nivale, Microdochium nivale; Snow Mould)—Fungal”, “(DMSO) solution” for “DMSO-solution”, “determined” for “measured”, “hrs. The activity of a compound was expressed as fungal growth inhibition” for “hrs”
structure (smiles),measurement,setting,value
CON(C(=O)c1cn(C)nc1C(F)F)C(C)c1ccc(Cl)cc1Cl (stereo not drawn) [Compound 1.023],inhibition at 6 ppm,[1]; 6 ppm,100%
same,inhibition at 20 ppm,[1]; 20 ppm,100%
same,inhibition at 60 ppm,[1]; 60 ppm,100%
same,melting point,,135 to 141 °C
same,inhibition at 0.002 % strength,[2],≥ 50%
same,preventive fungicidal activity,Pyrenophora teres [3]; 20 ppm,100
same,preventive fungicidal activity,Pyrenophora teres [3]; 60 ppm,100
same,preventive fungicidal activity,Pyrenophora teres [3]; 200 ppm,100
same,inhibition at 0.002 % strength,Botrvtis cinerea,≥ 80%
same,inhibition at 6 ppm,[4]; 6 ppm,100%
same,inhibition at 20 ppm,[4]; 20 ppm,100%
same,inhibition at 60 ppm,[4]; 60 ppm,100%
same,inhibition at 0.02 % strength,Pyrenophora teres [5],≥ 80%
same,inhibition at 6 ppm,Gaeumannomyces graminis; 6 ppm,0%
same,inhibition at 20 ppm,Gaeumannomyces graminis; 20 ppm,0%
same,inhibition at 60 ppm,Gaeumannomyces graminis; 60 ppm,50%
same,inhibition at 0.002 % strength,[6],≥ 80%
same,inhibition at 6 ppm,[7]; 6 ppm,0%
same,inhibition at 20 ppm,[7]; 20 ppm,0%
same,inhibition at 60 ppm,[7]; 60 ppm,50%
same,preventive fungicidal activity,Alternaria solani; 20 ppm,90
same,preventive fungicidal activity,Alternaria solani; 60 ppm,100
same,preventive fungicidal activity,Alternaria solani; 200 ppm,100
same,inhibition at 0.002 % strength,Septoria tritici,≥ 80%

# — US8357634B2, “N-alkoxycarboxamides and their use as microbiocides” (Syngenta Crop Protection LLC, priority 2009, dated 2013)
